This note sets out measurements from article PMC10176470, “Engaging a Non-catalytic Cysteine Residue Drives Potent and Selective Inhibition of Caspase-6” (Journal of the American Chemical Society, 2023).

Type in all cases: cell-based
Test [1] deals with proteins of HEK293T cells transiently overexpressing caspase-6 (Homo sapiens, UniProt P06748). Particulars: protein NPM1 (P06748).
The target of test [2] is T1, proteins of HEK293T cells transiently overexpressing caspase-6 (Homo sapiens, UniProt P09936).
T1 sequence (P09936 1-223): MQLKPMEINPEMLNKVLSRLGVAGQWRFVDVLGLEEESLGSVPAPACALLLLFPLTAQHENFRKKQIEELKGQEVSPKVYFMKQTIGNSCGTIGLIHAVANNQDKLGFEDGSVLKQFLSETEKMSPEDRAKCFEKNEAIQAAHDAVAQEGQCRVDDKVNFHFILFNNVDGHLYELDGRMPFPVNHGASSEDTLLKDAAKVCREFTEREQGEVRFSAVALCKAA
The note with it: protein UCHL1 (P09936).

For test [3], the target named is proteins of HEK293T cells transiently overexpressing caspase-6 (Homo sapiens, UniProt P31946). Particulars: exp_ref Probe; protein YWHAB (P31946); analysis C6.
Chain of proteins of HEK293T cells transiently overexpressing caspase-6 (Homo sapiens, UniProt P31946) (P31946 whole entry): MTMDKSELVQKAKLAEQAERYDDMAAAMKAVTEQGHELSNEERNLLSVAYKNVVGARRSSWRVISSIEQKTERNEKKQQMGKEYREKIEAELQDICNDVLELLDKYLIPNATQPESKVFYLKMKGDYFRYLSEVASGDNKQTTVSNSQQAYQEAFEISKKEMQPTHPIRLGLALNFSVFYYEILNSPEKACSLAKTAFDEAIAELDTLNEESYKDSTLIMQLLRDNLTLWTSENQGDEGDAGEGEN
Test [4] concerns the target proteins of HEK293T cells transiently overexpressing caspase-6 (Homo sapiens, UniProt P37837). The note with it: Probe; protein TALDO1 P37837.
For test [5], the target named is proteins of HEK293T cells transiently overexpressing caspase-6 (Homo sapiens, UniProt P49023). The note with it: Probe; protein PXN P49023.
Chain of proteins of HEK293T cells transiently overexpressing caspase-6 (Homo sapiens, UniProt P49023) (P49023 whole entry): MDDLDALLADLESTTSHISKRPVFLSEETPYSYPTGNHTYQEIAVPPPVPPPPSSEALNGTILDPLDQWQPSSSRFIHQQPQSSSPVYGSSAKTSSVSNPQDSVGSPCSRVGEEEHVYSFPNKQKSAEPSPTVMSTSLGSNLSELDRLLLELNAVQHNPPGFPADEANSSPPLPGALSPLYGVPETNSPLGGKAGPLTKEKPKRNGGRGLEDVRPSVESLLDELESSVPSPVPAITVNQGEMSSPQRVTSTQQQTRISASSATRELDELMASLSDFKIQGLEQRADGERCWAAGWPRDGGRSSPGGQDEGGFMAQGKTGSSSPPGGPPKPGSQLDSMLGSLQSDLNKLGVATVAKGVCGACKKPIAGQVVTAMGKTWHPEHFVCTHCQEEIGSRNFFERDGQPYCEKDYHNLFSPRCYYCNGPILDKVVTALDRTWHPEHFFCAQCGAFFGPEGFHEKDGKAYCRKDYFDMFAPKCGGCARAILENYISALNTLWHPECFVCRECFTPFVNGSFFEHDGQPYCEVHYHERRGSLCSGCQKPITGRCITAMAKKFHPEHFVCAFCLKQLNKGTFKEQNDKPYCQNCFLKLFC
The target in test [6] is proteins of HEK293T cells transiently overexpressing caspase-6 (Homo sapiens, UniProt P61981). Particulars: Probe; protein YWHAG P61981.
Chain of proteins of HEK293T cells transiently overexpressing caspase-6 (Homo sapiens, UniProt P61981) (P61981 whole entry): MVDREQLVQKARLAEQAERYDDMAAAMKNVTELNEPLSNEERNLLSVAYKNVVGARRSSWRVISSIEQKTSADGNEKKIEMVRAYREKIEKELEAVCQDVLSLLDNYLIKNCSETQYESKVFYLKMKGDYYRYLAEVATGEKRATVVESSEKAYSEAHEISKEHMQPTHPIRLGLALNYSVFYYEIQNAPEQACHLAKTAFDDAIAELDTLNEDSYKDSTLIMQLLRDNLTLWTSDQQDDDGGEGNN
The target in test [7] is proteins of HEK293T cells transiently overexpressing caspase-6 (Homo sapiens, UniProt P62937). The note with it: exp_ref Probe; protein PPIA (P62937); analysis C6.
Chain of proteins of HEK293T cells transiently overexpressing caspase-6 (Homo sapiens, UniProt P62937) (P62937 whole entry): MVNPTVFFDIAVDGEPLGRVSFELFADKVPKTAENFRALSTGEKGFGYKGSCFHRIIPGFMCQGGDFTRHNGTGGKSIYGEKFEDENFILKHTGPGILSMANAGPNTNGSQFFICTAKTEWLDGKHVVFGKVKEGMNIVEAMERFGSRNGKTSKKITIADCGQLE
The target of test [8] is proteins of HEK293T cells transiently overexpressing caspase-6 (Homo sapiens, UniProt Q15393). Particulars: exp_ref Probe; protein SF3B3 (Q15393); analysis C6.
Chain of proteins of HEK293T cells transiently overexpressing caspase-6 (Homo sapiens, UniProt Q15393) (Q15393 whole entry): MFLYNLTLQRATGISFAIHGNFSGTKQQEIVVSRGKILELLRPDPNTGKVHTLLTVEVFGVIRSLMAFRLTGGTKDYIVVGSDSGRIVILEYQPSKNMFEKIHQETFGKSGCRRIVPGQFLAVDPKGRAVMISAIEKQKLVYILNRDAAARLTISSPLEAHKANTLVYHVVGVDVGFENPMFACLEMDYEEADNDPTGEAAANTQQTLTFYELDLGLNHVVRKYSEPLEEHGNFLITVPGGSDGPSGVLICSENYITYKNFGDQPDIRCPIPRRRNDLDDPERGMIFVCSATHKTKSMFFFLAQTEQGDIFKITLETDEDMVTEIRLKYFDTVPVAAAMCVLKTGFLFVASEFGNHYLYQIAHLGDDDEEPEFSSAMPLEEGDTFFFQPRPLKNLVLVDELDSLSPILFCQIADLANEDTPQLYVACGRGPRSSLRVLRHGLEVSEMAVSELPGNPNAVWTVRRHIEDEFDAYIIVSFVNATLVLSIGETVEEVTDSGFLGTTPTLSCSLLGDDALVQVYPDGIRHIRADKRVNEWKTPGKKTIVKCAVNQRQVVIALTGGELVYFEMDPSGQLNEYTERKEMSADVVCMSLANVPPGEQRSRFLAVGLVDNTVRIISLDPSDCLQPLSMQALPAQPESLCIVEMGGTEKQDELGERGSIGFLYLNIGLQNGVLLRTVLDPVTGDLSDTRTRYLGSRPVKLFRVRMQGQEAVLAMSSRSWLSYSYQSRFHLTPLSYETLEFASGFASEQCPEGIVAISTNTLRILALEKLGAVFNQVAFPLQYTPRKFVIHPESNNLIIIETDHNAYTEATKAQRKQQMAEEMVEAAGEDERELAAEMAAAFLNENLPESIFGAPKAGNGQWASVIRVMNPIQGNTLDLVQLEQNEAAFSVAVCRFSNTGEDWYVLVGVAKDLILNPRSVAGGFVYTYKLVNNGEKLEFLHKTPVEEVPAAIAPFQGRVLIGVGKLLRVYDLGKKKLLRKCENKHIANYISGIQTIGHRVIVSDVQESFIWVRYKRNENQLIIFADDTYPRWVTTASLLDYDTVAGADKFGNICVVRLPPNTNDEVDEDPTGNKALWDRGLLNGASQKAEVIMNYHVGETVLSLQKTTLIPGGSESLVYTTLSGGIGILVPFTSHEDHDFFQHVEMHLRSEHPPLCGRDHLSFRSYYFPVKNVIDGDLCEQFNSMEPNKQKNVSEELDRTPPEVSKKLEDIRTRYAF
In test [9] the target is T2, proteins of HEK293T cells transiently overexpressing caspase-6 (Homo sapiens, UniProt Q9BQG0).
T2 sequence (Q9BQG0 1-1328): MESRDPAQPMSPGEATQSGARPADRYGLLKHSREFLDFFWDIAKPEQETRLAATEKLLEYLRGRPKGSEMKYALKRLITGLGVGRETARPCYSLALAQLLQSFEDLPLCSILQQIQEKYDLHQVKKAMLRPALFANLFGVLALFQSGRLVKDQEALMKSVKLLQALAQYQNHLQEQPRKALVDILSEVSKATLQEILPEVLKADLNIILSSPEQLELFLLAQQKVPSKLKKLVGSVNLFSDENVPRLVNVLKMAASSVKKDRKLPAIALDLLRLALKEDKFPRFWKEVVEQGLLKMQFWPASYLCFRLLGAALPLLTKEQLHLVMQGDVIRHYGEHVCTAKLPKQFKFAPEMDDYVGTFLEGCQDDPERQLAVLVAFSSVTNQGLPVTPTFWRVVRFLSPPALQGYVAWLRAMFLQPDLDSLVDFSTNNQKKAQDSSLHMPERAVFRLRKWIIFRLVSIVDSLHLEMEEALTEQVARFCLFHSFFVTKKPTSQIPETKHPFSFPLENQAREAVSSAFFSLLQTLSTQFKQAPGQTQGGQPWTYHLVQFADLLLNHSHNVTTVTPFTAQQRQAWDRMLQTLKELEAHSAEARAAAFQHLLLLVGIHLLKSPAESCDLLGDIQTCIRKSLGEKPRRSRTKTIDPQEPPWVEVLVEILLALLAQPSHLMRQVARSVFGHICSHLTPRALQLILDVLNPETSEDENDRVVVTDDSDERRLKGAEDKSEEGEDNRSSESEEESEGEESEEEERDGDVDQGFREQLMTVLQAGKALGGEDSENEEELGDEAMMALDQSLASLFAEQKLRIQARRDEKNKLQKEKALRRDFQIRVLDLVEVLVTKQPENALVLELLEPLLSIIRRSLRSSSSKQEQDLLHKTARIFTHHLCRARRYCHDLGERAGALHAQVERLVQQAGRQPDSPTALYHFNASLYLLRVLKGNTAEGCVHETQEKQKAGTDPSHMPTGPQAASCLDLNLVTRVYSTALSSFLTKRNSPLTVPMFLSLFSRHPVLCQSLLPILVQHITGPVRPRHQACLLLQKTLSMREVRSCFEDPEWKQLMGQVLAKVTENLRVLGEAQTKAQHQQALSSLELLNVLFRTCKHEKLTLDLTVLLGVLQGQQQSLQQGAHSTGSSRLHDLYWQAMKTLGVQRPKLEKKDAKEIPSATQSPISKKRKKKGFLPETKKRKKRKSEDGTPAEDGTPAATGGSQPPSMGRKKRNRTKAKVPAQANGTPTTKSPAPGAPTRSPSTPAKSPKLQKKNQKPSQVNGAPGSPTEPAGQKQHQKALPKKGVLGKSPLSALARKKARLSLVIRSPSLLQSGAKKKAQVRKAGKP
The note with it: protein MYBBP1A (Q9BQG0).

Test [10] addresses proteins of HEK293T cells transiently overexpressing caspase-6 (Homo sapiens, UniProt Q9NVX2). The note with it: Probe; protein NLE1 Q9NVX2.

Chain of proteins of HEK293T cells transiently overexpressing caspase-6 (Homo sapiens, UniProt P06748) (P06748 whole entry): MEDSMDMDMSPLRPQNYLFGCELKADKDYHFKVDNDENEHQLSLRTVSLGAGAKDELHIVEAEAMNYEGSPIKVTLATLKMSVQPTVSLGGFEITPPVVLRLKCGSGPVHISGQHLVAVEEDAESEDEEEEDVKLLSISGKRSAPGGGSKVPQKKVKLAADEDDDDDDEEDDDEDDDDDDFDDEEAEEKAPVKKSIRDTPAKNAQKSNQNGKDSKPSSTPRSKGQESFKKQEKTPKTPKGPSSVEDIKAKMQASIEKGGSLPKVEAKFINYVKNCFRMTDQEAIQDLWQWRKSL
Chain of proteins of HEK293T cells transiently overexpressing caspase-6 (Homo sapiens, UniProt Q9NVX2) (Q9NVX2 whole entry): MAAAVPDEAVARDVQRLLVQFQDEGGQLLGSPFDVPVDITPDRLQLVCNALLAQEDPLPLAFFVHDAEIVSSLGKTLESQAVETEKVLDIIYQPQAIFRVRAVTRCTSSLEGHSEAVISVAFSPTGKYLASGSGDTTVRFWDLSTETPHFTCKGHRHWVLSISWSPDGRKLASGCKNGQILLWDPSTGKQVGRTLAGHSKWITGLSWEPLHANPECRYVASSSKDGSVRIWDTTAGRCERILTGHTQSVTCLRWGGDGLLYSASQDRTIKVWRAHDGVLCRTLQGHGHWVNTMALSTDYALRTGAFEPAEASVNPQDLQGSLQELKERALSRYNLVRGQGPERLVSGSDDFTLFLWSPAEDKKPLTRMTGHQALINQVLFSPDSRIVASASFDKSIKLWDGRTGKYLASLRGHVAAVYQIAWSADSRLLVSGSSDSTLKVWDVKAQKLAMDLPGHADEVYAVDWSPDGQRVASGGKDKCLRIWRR
Chain of proteins of HEK293T cells transiently overexpressing caspase-6 (Homo sapiens, UniProt P37837) (P37837 whole entry): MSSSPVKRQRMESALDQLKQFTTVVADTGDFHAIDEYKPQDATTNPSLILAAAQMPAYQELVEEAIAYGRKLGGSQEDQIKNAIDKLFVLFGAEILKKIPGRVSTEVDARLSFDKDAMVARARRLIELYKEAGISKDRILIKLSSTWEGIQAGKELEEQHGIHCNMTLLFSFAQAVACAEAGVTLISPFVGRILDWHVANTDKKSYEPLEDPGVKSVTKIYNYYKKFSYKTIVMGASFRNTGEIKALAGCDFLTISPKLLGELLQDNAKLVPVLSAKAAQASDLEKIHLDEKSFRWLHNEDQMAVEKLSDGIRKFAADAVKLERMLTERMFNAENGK

As to `C#CCOc1ccc([C@@H]2C[C@@H](C(=O)Nc3ccc(OC(F)(F)F)cc3)CN(S(=O)(=O)C=C)C2)cc1` (relative stereo) [13-t], the enrich.exp.med in test [1] (exp_ref Probe, analysis C6) is -0.3931; in test [2] (exp_ref Probe, analysis C6) it was 1.788; in test [3] it was -0.2081; in test [4] it was -1.23; in test [5], -1.7768; in test [6] it was -1.712. The enrich.exp.med in test [7] is recorded as -0.06908; in [8], -0.1408; in test [9] (exp_ref Probe, analysis C6), 1.154; in test [10] it was -1.769. The enrich.exp.med.lin in test [1] stood at 0.7615; in [2], 3.454; in [9] it was 2.225. For the same compound, the enrich.exp.med.log2 was -0.3931 in [1], 1.788 in test [2] and 1.154 in test [9].
